This note sets out measurements from patent US11208412B2 (DAEGU-GYEONGBUK MEDICAL INNOVATION FOUNDATION, priority 2017, dated 2021).

This test addresses T1, recombinant LRRK2 kinase (Homo sapiens, UniProt Q5S007).
T1 construct: purchased Signal Chem, Richmond, BC, Canada
In words: LRRK2 kinase inhibition (Kinase-Glo luminescence). Format: biochemical. The following applies: IC50 grade; 25 μmol/L ATP, LRRKtide, 30° C. 2 hours; read-out: Enzyme activity LRRK2. Here is the method:
Upon completion of the reaction, an equal amount of Kinase-Glo (Promega, Madison, Wis.) solution was added thereto, followed by reaction for 40 minutes. A detection solution was added thereto, followed by further reaction at room temperature for 30 minutes. Then, IC50 of kinase was calculated by measuring the amount of luciferase using a microplate ELISA reader (Bio-Tek).
(Kinase-Glo reads ATP consumption through a luciferase reaction.)

A value given as a limit tells only on which side of the number the result lay.

T1 sequence (Q5S007 whole entry): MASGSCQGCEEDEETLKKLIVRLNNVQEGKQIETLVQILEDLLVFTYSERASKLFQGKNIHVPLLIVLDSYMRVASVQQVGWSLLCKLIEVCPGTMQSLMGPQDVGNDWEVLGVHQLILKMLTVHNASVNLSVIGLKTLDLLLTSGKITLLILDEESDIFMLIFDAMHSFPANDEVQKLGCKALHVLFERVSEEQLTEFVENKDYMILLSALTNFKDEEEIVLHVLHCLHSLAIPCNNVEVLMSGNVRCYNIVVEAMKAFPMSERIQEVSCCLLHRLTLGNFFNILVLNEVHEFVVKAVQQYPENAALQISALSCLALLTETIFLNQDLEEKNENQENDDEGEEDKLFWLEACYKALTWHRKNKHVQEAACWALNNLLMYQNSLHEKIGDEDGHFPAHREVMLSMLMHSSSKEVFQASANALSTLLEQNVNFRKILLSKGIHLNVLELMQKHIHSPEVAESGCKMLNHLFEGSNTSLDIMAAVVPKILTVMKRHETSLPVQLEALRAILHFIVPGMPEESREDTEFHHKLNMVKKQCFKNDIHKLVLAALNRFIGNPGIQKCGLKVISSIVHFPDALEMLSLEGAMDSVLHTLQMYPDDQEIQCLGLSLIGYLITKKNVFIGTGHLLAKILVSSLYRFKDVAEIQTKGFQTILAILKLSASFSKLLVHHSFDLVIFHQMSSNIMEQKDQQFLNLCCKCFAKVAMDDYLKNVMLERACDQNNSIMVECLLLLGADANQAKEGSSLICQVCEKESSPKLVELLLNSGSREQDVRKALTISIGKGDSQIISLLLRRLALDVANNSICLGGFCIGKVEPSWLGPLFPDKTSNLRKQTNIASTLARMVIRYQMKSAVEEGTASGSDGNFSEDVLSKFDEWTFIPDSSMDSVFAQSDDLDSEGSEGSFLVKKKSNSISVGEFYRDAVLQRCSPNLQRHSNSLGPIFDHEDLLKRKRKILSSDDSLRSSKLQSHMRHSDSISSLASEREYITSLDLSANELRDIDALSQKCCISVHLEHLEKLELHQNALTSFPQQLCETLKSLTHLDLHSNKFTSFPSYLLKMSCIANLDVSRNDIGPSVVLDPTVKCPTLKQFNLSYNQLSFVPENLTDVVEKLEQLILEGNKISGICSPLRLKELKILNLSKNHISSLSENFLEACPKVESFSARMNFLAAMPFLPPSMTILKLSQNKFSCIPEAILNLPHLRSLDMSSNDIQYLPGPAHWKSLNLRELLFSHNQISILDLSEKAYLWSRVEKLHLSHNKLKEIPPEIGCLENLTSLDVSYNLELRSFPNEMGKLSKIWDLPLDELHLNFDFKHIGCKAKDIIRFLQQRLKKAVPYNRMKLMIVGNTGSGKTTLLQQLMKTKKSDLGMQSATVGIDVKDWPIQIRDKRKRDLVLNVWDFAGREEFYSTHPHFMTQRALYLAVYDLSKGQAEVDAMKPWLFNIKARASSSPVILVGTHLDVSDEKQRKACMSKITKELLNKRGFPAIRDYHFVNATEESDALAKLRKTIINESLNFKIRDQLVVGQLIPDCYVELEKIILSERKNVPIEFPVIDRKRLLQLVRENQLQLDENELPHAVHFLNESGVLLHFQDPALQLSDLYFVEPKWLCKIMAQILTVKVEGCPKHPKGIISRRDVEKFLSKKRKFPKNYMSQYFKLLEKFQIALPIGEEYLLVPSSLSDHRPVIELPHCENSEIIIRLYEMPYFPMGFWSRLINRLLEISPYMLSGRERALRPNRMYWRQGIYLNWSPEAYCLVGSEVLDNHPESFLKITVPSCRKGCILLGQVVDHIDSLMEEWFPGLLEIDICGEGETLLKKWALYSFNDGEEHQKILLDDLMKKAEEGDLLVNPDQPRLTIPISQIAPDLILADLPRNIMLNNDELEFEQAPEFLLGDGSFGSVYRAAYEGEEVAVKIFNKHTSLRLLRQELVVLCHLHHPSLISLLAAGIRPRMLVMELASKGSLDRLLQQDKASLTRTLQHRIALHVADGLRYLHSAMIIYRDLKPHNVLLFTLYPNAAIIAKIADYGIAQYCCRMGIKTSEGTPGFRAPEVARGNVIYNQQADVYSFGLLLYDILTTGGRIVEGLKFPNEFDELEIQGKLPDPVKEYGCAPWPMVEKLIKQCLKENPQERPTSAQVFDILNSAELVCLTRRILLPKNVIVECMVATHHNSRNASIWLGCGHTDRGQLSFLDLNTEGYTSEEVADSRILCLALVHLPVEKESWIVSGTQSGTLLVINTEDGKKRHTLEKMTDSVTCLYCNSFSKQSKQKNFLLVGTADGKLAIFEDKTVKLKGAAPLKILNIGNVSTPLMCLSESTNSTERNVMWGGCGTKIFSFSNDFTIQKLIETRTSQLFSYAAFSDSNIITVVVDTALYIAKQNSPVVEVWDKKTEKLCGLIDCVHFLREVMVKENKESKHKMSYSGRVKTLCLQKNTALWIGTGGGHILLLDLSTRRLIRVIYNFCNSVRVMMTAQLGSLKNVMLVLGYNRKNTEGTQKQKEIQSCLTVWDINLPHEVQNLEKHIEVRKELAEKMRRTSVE

`CCNc1nc(Nc2cc3c(cc2OC)N(C)C(=O)C(C)(C)O3)nc2[nH]cc(C(F)(F)F)c12` [Example 137, 7-((4-(ethylamino)-5-(trifluoromethyl)-7H-pyrrolo[2,3-d]pyrimidine-2-yl)amino)-6-methoxy-2,2,4-trimethyl-2H-benzo[1,4]oxazine-3(4H)-one]: the IC50 is more than 100 nM.
